What was measured:
Assay type in all cases: in vivo
[1] = test system: Amaranthus retoflexus (AMARE); experiment: Post-emergence Test (glasshouse, percentage damage to the plant); settings: post-emergence spray, 1000 g/ha unless otherwise stated, evaluated after 13 days
In short: (§1)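 Sown pots; spray 1000 g/ha (unless stated) in acetone/water 50:50 + 0.5% Tween 20; glasshouse 24/16 °C, 14 h light, 65% RH; watered twice daily; % damage read at 13 days, scored 1–5.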

[2] = test system: Echinochloa crus-galli (ECHCG); experiment: as above; settings: post-emergence spray, 1000 g/ha unless otherwise stated, evaluated after 13 days
In short: as §1

[3] = test system: Ipomoea hederacea (IPOHE); experiment: as above; settings: post-emergence spray, 1000 g/ha unless otherwise stated, evaluated after 13 days
In short: (§2)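 Seeds sown in standard soil in a glasshouse (24/16 °C day/night, 14 h light, 65% humidity), then sprayed with an aqueous solution of the compound formulated in acetone/water 50:50 with 0.5% Tween 20 at 1000 g/ha unless otherwise stated. Percentage damage was scored after 13 days on a five-point scale (5=81-100%; 1=0-20%).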

Lolium perenne (LOLPE) [4] = experiment: as above; settings: post-emergence spray, 1000 g/ha unless otherwise stated, evaluated after 13 days
In short: as §1

Setaria faberi (SETFA) [5] = experiment: as above; settings: post-emergence spray, 1000 g/ha unless otherwise stated, evaluated after 13 days
In short: as §2

Solanum nigrum (SOLNI) [6] = experiment: as above; settings: post-emergence spray, 1000 g/ha unless otherwise stated, evaluated after 13 days
In short: as §1

[7] = test system: Amaranthus retoflexus (AMARE); experiment: Pre-emergence Test (glasshouse, percentage damage to the plant); settings: 1000 g/ha unless otherwise stated, five-point scale
Solanum nigrum (SOLNI) [8] = experiment: as above; settings: 1000 g/ha unless otherwise stated, five-point scale
Setaria faberi (SETFA) [9] = experiment: as above; settings: 1000 g/ha unless otherwise stated, five-point scale
Lolium perenne (LOLPE) [10] = experiment: as above; settings: 1000 g/ha unless otherwise stated, five-point scale
[11] = test system: Echinochloa crus-galli (ECHCG); experiment: as above; settings: 1000 g/ha unless otherwise stated, five-point scale
[12] = test system: Ipomoea hederacea (IPOHE); experiment: as above; settings: 1000 g/ha unless otherwise stated, five-point scale

Compound | Post-emergence Test AMARE, percentage damage to the plant (five-point scale) [1] | Post-emergence Test ECHCG, percentage damage to the plant (five-point scale) [2] | Post-emergence Test IPOHE, percentage damage to the plant (five-point scale) [3] | Post-emergence Test LOLPE, percentage damage to the plant (five-point scale) (Lolium perenne (LOLPE) [4]) | Post-emergence Test SETFA, percentage damage to the plant (five-point scale) (Setaria faberi (SETFA) [5]) | Post-emergence Test SOLNI, percentage damage to the plant (five-point scale) (Solanum nigrum (SOLNI) [6]) | percentage damage to the plant, AMARE [7] | percentage damage to the plant, SOLNI (Solanum nigrum (SOLNI) [8]) | percentage damage to the plant, SETFA (Setaria faberi (SETFA) [9]) | percentage damage to the plant, LOLPE (Lolium perenne (LOLPE) [10]) | percentage damage to the plant, ECHCG [11] | percentage damage to the plant, IPOHE [12]
CCn1c(C)c(-c2ccc(Cl)cc2)c(=O)c(C(=O)O)c1-c1ccc(Cl)c(Cl)c1 [Compound 10, 5-(4-chlorophenyl)-2-(3,4-dichlorophenyl)-1-ethyl-6-methyl-4-oxo-pyridine-3-carboxylic acid] | 5 (5=81-100%) | 4 (4=61-80%) | 4 (4=61-80%) | 3 (3=41-60%) | 5 (5=81-100%) | 5 (5=81-100%) | 5 (5=81-100%) | 4 (4=61-80%) | 4 (4=61-80%) | 1 (1=0-20%) | 3 (3=41-60%) | 2 (2=21-40%)
CCn1c(C)c(-c2ccc([N+](=O)[O-])cc2)c(=O)c(C(=O)O)c1-c1ccc(Cl)c(Cl)c1 [Compound 36, 2-(3,4-dichlorophenyl)-1-ethyl-6-methyl-5-(4-nitrophenyl)-4-oxo-pyridine-3-carboxylic acid] | 1 (1=0-20%) | 5 (5=81-100%) | 1 (1=0-20%) | 1 (1=0-20%) | 4 (4=61-80%) | 2 (2=21-40%) | 1 (1=0-20%) | 3 (3=41-60%) | 5 (5=81-100%) | 1 (1=0-20%) | 5 (5=81-100%) | 1 (1=0-20%)
CCn1c(C)c(-c2ccc(OCc3ccccc3)cc2)c(=O)c(C(=O)O)c1-c1ccc(Cl)c(Cl)c1 [Compound 34, 5-(4-benzyloxyphenyl)-2-(3,4-dichlorophenyl)-1-ethyl-6-methyl-4-oxo-pyridine-3-carboxylic acid] | 4 (4=61-80%) | 2 (2=21-40%) | 1 (1=0-20%) | 1 (1=0-20%) | 2 (2=21-40%) | 4 (4=61-80%) | 3 (3=41-60%) | 2 (2=21-40%) | 3 (3=41-60%) | 2 (2=21-40%) | 1 (1=0-20%) | 1 (1=0-20%)
CCn1c(C)c(-c2ccccc2C)c(=O)c(C(=O)O)c1-c1ccc(Cl)c(Cl)c1 [Compound 31, 2-(3,4-dichlorophenyl)-1-ethyl-6-methyl-5-(o-tolyl)-4-oxo-pyridine-3-carboxylic acid] | 3 (3=41-60%) | 1 (1=0-20%) | 2 (2=21-40%) | 2 (2=21-40%) | 3 (3=41-60%) | 4 (4=61-80%) | 1 (1=0-20%) | 4 (4=61-80%) | 4 (4=61-80%) | 1 (1=0-20%) | 1 (1=0-20%) | 1 (1=0-20%)
CCn1c(C)c(-c2cnn(C)c2)c(=O)c(C(=O)O)c1-c1ccc(Cl)c(Cl)c1 [Compound 1, 2-(3,4-dichlorophenyl)-1-ethyl-6-methyl-5-(1-methylpyrazol-4-yl)-4-oxo-pyridine-3-carboxylic acid] | 5 (5=81-100%) | 5 (5=81-100%) | 4 (4=61-80%) | 3 (3=41-60%) | 5 (5=81-100%) | 5 (5=81-100%) | 1 (1=0-20%) | 5 (5=81-100%) | 5 (5=81-100%) | 4 (4=61-80%) | 5 (5=81-100%) | 4 (4=61-80%)
CCn1c(C)c(-c2csc(Cl)c2)c(=O)c(C(=O)O)c1-c1ccc(Cl)c(Cl)c1 [Compound 37, 5-(5-chloro-3-thienyl)-2-(3,4-dichlorophenyl)-1-ethyl-6-methyl-4-oxo-pyridine-3-carboxylic acid] | 1 (1=0-20%) | 1 (1=0-20%) | 3 (3=41-60%) | 1 (1=0-20%) | 1 (1=0-20%) | 4 (4=61-80%) | 1 (1=0-20%) | 1 (1=0-20%) | 1 (1=0-20%) | 1 (1=0-20%) | 1 (1=0-20%) | 1 (1=0-20%)
CCn1c(C)c(-c2ccccn2)c(=O)c(C(=O)O)c1-c1ccc(Cl)c(Cl)c1.Cl [Compound 28, 2-(3,4-dichlorophenyl)-1-ethyl-6-methyl-4-oxo-5-pyridin-1-ium-2-yl-pyridine-3-carboxylic acid;chloride] | 2 (2=21-40%) | 2 (2=21-40%) | 4 (4=61-80%) | 2 (2=21-40%) | 3 (3=41-60%) | 3 (3=41-60%) | 1 (1=0-20%) | 2 (2=21-40%) | 1 (1=0-20%) | 1 (1=0-20%) | 1 (1=0-20%) | 3 (3=41-60%)
CCn1c(C)c(-c2ccc(Cl)c(Cl)c2)c(=O)c(C(=O)O)c1-c1ccc(Cl)c(Cl)c1 [Compound 29, 2,5-bis(3,4-dichlorophenyl)-1-ethyl-6-methyl-4-oxo-pyridine-3-carboxylic acid] | 5 (5=81-100%) | 1 (1=0-20%) | 2 (2=21-40%) | 2 (2=21-40%) | 3 (3=41-60%) | 3 (3=41-60%) | 3 (3=41-60%) | 1 (1=0-20%) | 3 (3=41-60%) | 1 (1=0-20%) | 1 (1=0-20%) | 1 (1=0-20%)
CCn1c(C)c(-c2ccc(OC)cc2)c(=O)c(C(=O)O)c1-c1ccc(Cl)c(Cl)c1 [Compound 18, 2-(3,4-dichlorophenyl)-1-ethyl-5-(4-methoxyphenyl)-6-methyl-4-oxo-pyridine-3-carboxylic acid] | 5 (5=81-100%) | 4 (4=61-80%) | 5 (5=81-100%) | 2 (2=21-40%) | 5 (5=81-100%) | 5 (5=81-100%) | 1 (1=0-20%) | 2 (2=21-40%) | 4 (4=61-80%) | 1 (1=0-20%) | 2 (2=21-40%) | 1 (1=0-20%)
CCn1c(C)c(-c2cncc(Cl)c2)c(=O)c(C(=O)O)c1-c1ccc(Cl)c(Cl)c1 [Compound 23, 5-(5-chloro-3-pyridyl)-2-(3,4-dichlorophenyl)-1-ethyl-6-methyl-4-oxo-pyridine-3-carboxylic acid] | 3 (3=41-60%) | 3 (3=41-60%) | 3 (3=41-60%) | 1 (1=0-20%) | 4 (4=61-80%) | 1 (1=0-20%) | 1 (1=0-20%) | 1 (1=0-20%) | 5 (5=81-100%) | 1 (1=0-20%) | 1 (1=0-20%) | 1 (1=0-20%)
